Experiment [1] has as its target T1, Tip60 (Homo sapiens, UniProt Q92993).
T1 construct: purchased Active Motif 81975
Put plainly: In vitro histone acetylation activity assay (Tip60). It is filed as biochemical. As to conditions: 20 μM compound, vs Tip60+DMSO. How it is done:
HAT assays were performed according to manufacturer's instructions in HAT Assay Kit (Active Motif 56100). Briefly, 375 ng Tip60 protein (Active motif: 81975) was incubated with 50 μM Histone H4 peptide, 50 μM Acetyl-CoA and indicated drug concentrations for 30 minutes at room temperature. After stopping the reaction and developing free sulfhydryl groups, […] was recorded at excitation 360-390 nm and emission 460-490 nm using Glomax fluorescence microplate reader. Specific enzyme activity (pmol/min/μg) was calculated by 1. Subtracting background fluorescence from that of assay samples to obtain arbitrary fluorescence units (AFU); and (2) Dividing the difference by the incubation time to obtain AFU/minute. 3. Dividing the AFU/minute by the slope of standard curve in AFU/pmol to obtain the rate in pmol/minute. 4. Dividing pmol/min by the amount of enzyme used to obtain final readings in pmol/minute/μg.

The test system of experiment [2] is Drosophila Alzheimer's disease model (APP). In words: Larval line crossing assay in APP Alzheimer's disease model. The format is in vivo. The note with it: 3rd instar APP larvae, compound in fly food, range of concentrations.
Experiment [3] concerns Drosophila Tip60 knockdown model. Put plainly: Larval line crossing / reaching the wall assay in Tip60-RNAi knockdown model. It is filed as in vivo. The note with it: for rescue of Tip60 knockdown induced locomotion deficits (line crossing in 30 seconds): 3rd instar Tip60-RNAi larvae, compound in fly food.
In experiment [4] the target is purified p300 HAT (Homo sapiens, UniProt Q09472). In words: In vitro histone acetylation activity assay (p300). The format is biochemical. The note with it: HAT assays, 20 μM.
Experiment [5] concerns Drosophila Alzheimer's disease model (APP). In words: Eclosion assay (lethality) in APP Alzheimer's disease model. It is filed as in vivo. As to conditions: compound in fly food. Here is the method:
All fly lines were raised on standard yeast Drosophila medium (Applied Scientific Jazz Mix Drosophila Food, Thermo Fischer Scientific) at 25° C. with 12/12-h light/dark cycle. The pan-neuronal driver elav^C155-Gal4, transgenic Tip60-RNAi-mediated knock-down (UAS-Tip60 RNAi) and the transgenic UAS lines carrying human APP 695 isoform (UAS-APP) were obtained from Bloomington Drosophila Stock Center. For neural Tip60 knockdown and APP expression, the elav^C155-Gal4 driver line was crossed with UAS-Tip60RNAi or UAS-APP and the progeny was collected as Tip60 knockdown model (elav^C155-Gal4/UAS-Tip60 RNAi) or APP associated AD model (elav^C155-Gal4/UAS-APP). For wild-type control, the elav^C155-Gal4 driver line was crossed with itself. Model validation was performed by confirming reduced Tip60 mRNA levels in Tip60 RNAi model as compared to wildtype using real-time PCR.
Compounds were synthesized by Enamine, Princeton Molecular and ChemBridge. […]
The P10 and P13 compound's functional effectiveness in rescuing AD associated lethality that occurs as a culmination of later stage neurodgenerative progression was assessed using an eclosion assay (FIG. 9C). Briefly, larvae were reared on food either with compounds dissolved in DMSO or without compounds (DMSO vehicle) and the number of flies that eclosed from their pupal cases over a 7 day period were counted.

“Also recorded” adds a separate entry of the source.

T1 sequence (Q92993 whole entry): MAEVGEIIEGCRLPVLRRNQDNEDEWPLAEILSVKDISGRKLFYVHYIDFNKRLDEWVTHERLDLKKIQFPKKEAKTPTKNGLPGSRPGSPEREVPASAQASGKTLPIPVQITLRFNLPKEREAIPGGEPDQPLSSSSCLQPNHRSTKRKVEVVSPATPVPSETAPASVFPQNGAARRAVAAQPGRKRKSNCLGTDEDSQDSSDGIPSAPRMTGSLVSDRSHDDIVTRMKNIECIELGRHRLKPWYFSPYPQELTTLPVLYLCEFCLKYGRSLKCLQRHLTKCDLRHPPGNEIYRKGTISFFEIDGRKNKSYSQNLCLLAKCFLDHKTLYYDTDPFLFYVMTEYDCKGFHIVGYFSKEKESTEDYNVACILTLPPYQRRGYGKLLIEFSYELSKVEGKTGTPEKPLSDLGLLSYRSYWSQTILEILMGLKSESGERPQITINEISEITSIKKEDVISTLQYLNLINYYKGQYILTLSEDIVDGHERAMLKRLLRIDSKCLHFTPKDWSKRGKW
purified p300 HAT, sequence (Q09472 whole entry, species assumed): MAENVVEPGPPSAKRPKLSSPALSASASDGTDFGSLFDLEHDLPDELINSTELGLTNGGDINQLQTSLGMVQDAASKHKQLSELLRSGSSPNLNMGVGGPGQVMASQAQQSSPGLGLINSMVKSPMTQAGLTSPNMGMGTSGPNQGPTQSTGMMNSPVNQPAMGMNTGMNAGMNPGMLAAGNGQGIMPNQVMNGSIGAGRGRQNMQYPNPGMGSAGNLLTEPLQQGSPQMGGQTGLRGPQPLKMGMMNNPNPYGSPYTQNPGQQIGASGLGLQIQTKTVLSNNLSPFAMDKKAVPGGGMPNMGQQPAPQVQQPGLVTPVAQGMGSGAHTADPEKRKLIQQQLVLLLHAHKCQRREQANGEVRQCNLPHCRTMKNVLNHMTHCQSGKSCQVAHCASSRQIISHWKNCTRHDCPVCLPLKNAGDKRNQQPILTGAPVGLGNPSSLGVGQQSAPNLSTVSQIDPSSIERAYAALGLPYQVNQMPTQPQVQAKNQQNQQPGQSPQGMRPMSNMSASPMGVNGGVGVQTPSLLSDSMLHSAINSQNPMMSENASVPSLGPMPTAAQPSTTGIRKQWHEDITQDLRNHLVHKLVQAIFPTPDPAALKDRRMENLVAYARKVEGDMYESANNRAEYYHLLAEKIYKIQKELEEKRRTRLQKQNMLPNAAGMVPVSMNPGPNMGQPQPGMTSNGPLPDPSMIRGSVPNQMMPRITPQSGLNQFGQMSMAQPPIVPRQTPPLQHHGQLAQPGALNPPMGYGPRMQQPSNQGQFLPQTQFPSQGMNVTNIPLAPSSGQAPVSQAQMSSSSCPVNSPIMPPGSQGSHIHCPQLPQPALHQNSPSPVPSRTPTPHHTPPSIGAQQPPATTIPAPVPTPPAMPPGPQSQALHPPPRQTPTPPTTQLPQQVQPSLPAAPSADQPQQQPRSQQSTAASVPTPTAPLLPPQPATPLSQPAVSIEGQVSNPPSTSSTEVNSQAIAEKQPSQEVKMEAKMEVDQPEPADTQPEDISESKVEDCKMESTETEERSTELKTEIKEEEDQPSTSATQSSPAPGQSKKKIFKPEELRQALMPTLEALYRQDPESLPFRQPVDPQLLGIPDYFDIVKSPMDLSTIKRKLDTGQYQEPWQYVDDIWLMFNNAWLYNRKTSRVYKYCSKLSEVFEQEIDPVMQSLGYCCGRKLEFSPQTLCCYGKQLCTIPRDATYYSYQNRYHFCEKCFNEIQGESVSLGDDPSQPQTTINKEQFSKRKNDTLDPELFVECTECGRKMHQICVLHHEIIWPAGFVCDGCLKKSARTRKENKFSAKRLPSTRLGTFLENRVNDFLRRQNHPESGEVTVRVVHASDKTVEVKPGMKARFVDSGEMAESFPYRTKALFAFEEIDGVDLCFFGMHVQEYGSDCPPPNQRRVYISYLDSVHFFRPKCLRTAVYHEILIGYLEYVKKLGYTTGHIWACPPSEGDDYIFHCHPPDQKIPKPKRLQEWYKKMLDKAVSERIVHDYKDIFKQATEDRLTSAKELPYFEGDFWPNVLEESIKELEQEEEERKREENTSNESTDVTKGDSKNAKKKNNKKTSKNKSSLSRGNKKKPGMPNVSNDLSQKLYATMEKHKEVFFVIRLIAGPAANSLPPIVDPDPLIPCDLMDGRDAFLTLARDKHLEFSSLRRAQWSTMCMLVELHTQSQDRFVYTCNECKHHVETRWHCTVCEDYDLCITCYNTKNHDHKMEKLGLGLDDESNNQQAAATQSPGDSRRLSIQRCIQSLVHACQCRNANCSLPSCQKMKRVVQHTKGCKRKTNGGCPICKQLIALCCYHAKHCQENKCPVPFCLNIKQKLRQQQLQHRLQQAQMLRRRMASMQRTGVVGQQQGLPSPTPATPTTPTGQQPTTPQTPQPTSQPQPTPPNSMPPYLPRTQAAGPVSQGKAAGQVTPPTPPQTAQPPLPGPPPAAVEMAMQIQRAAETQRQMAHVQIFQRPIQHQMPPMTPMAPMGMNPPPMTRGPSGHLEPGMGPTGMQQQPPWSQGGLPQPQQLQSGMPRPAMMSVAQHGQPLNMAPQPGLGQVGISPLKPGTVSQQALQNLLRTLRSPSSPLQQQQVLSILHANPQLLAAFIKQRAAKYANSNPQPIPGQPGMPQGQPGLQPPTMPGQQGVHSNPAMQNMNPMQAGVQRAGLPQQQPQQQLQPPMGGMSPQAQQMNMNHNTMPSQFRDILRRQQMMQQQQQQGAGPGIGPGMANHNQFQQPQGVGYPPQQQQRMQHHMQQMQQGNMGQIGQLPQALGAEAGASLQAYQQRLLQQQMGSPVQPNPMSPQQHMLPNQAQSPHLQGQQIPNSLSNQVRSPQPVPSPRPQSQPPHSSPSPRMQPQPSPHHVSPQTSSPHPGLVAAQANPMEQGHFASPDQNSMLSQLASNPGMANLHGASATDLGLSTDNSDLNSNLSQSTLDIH

For `CCOc1ccccc1C(=O)Nc1cnn(Cc2ccc(C)cc2)c1` [Compound P6, 2-ethoxy-N-(1-(4-methylbenzyl)-1H-pyrazol-4-yl)benzamide], the “effect on Tip60's HAT activity (Histone H4 acetylation, fluorescence)” value (from here on “effect on Tip60's HAT activity”) in experiment [1] was “enhanced Tip60's HAT activity; also recorded: highest level of Tip60 HAT activation”. The “rescue of AD associated locomotion defects (line crossing, reaching wall)” value (“rescue … (line crossing, reaching wall)” for short) in experiment [2] was “high rescue overall, its action was inconsistent”. The “rescue of Tip60 knockdown induced locomotion deficits (line crossing in 30 seconds)” value (“rescue … (line crossing in 30 seconds)” below) in experiment [3] was “rescue locomotor speed defect; also recorded: inconsistent rescue results”.

Consider `Cc1nc2c(cnn2C(C)C)cc1C(=O)NCc1ccc([C@H](C)O)c(C)n1` [Compound P10, (S)-N-((5-(1-hydroxyethyl)-6-methylpyridin-2-yl)methyl)-1-isopropyl-6-methyl-1H-pyrazolo[3,4-b]pyridine-5-carboxamide], for which the “effect on Tip60's HAT activity” value in experiment [1] is recorded as “enhanced Tip60's HAT activity; also recorded: highest level of Tip60 HAT activation”. Also, the “rescue … (line crossing, reaching wall)” value in experiment [2] is “consistent and robust rescue”. The “specificity for Tip60 over p300” value in experiment [4] was “highest specificity for Tip60 over p300”. Further, the “rescue … (line crossing in 30 seconds)” value in experiment [3] is on record as “rescue locomotor speed defect”. Further, in experiment [5], the “rescue of AD associated lethality (flies eclosed over 7 day period)” value is “significant rescue of lethality”.

Take `CC(=O)Nc1cccc(CNC(=O)c2cnc3ccccc3c2C(F)(F)F)c1` [Compound P13, N-(3-acetamidobenzyl)-4-(trifluoromethyl)quinoline-3-carboxamide]: the “effect on Tip60's HAT activity” value in experiment [1] is given as “enhanced Tip60's HAT activity; also recorded: highest level of Tip60 HAT activation”. Also, the “rescue … (line crossing, reaching wall)” value in experiment [2] is “consistent and robust rescue”. Also, the “specificity for Tip60 over p300” value in experiment [4] is “highest specificity for Tip60 over p300”. In addition, in experiment [3] (1 μM drug concentration), the “ability of larvae to cross plate and reach the wall” value was “improved the performance of larvae in reaching the wall”; the “restoration of locomotor activity (line crossing)” value is reported as “best performer in restoring locomotor activity to wild-type levels”. For the same compound, the “rescue … (line crossing in 30 seconds)” value in experiment [3] is given as “rescue locomotor speed defect”. Further, the “rescue of AD associated lethality (flies eclosed over 7 day period)” value in experiment [5] is listed as “significant rescue of lethality; also recorded: more robust effects”.
